# Measured values reported in PubChem BioAssay (NCI).
#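 GI50 = concentration required for 50% inhibition of growth. TGI: total growth inhibition.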
# Tests used:
# Test in all cases: NCI tumour cell line growth inhibition, 384-well format
# 786-0 renal = system: 786-0 renal
# A498 renal = system: A498 renal
# A549 NSCLC = system: A549 NSCLC
# ACHN renal = system: ACHN renal
# BT-549 breast = system: BT-549 breast
# CAKI-1 renal = system: CAKI-1 renal
# CCRF-CEM leukemia = system: CCRF-CEM leukemia
# COLO 205 colon = system: COLO 205 colon
# DU-145 prostate = system: DU-145 prostate
# EKVX NSCLC = system: EKVX NSCLC
# HCC-2998 colon = system: HCC-2998 colon
# HCT-116 colon = system: HCT-116 colon
# HCT-15 colon = system: HCT-15 colon
# HL-60(TB) leukemia = system: HL-60(TB) leukemia
# HOP-62 NSCLC = system: HOP-62 NSCLC
# HOP-92 NSCLC = system: HOP-92 NSCLC
# HS 578T breast = system: HS 578T breast
# HT29 colon = system: HT29 colon
# IGROV1 ovarian = system: IGROV1 ovarian
# K-562 leukemia = system: K-562 leukemia
# KM12 colon = system: KM12 colon
# LOX IMVI melanoma = system: LOX IMVI melanoma
# M14 melanoma = system: M14 melanoma
# MALME-3M melanoma = system: MALME-3M melanoma
# MCF7 breast = system: MCF7 breast
# MDA-MB-231 breast = system: MDA-MB-231 breast
# MDA-MB-435 melanoma = system: MDA-MB-435 melanoma
# MOLT-4 leukemia = system: MOLT-4 leukemia
# NCI-H226 lung = system: NCI-H226 lung
# NCI-H23 lung = system: NCI-H23 lung
# NCI-H322M lung = system: NCI-H322M lung
# NCI-H460 NSCLC = system: NCI-H460 NSCLC
# NCI-H522 lung = system: NCI-H522 lung
# NCI/ADR-RES ovarian = system: NCI/ADR-RES ovarian
# OVCAR-3 ovarian = system: OVCAR-3 ovarian
# OVCAR-4 ovarian = system: OVCAR-4 ovarian
# OVCAR-5 ovarian = system: OVCAR-5 ovarian
# OVCAR-8 ovarian = system: OVCAR-8 ovarian
# PC-3 prostate = system: PC-3 prostate
# RPMI-8226 leukemia = system: RPMI-8226 leukemia
# RXF 393 renal = system: RXF 393 renal
# SF-268 CNS = system: SF-268 CNS
# SF-295 CNS = system: SF-295 CNS
# SF-539 CNS = system: SF-539 CNS
# SK-MEL-2 melanoma = system: SK-MEL-2 melanoma
# SK-MEL-28 melanoma = system: SK-MEL-28 melanoma
# SK-MEL-5 melanoma = system: SK-MEL-5 melanoma
# SK-OV-3 ovarian = system: SK-OV-3 ovarian
# SN12C renal = system: SN12C renal
# SNB-19 CNS = system: SNB-19 CNS
# SNB-75 CNS = system: SNB-75 CNS
# SR leukemia = system: SR leukemia
# SW-620 colon = system: SW-620 colon
# T-47D breast = system: T-47D breast
# TK-10 renal = system: TK-10 renal
# U251 glioblastoma = system: U251 glioblastoma
# UACC-257 melanoma = system: UACC-257 melanoma
# UACC-62 melanoma = system: UACC-62 melanoma
# UO-31 renal = system: UO-31 renal
structure (smiles),measurement,setting,value
CN1C(=O)[C@@H](NC(=O)[C@H](CCC(F)(F)F)[C@H](CCC(F)(F)F)C(N)=O)N=C(c2ccccc2)c2ccccc21,GI50,786-0 renal,87.1 µM
same,TGI,786-0 renal,> 100 µM
same,GI50,A498 renal,42 µM
same,TGI,A498 renal,> 100 µM
same,GI50,A549 NSCLC,67.5 µM
same,TGI,A549 NSCLC,> 100 µM
same,GI50,ACHN renal,> 100 µM
same,TGI,ACHN renal,> 100 µM
same,GI50,BT-549 breast,> 100 µM
same,TGI,BT-549 breast,> 100 µM
same,GI50,CAKI-1 renal,58.2 µM
same,TGI,CAKI-1 renal,> 100 µM
same,GI50,CCRF-CEM leukemia,53.3 µM
same,TGI,CCRF-CEM leukemia,> 100 µM
same,GI50,COLO 205 colon,> 79.5 µM
same,TGI,COLO 205 colon,> 100 µM
same,GI50,DU-145 prostate,> 100 µM
same,TGI,DU-145 prostate,> 100 µM
same,GI50,EKVX NSCLC,> 100 µM
same,TGI,EKVX NSCLC,> 100 µM
same,GI50,HCC-2998 colon,> 100 µM
same,TGI,HCC-2998 colon,> 100 µM
same,GI50,HCT-116 colon,> 92.7 µM
same,TGI,HCT-116 colon,> 100 µM
same,GI50,HCT-15 colon,> 95.7 µM
same,TGI,HCT-15 colon,> 100 µM
same,GI50,HL-60(TB) leukemia,> 51.6 µM
same,TGI,HL-60(TB) leukemia,> 100 µM
same,GI50,HOP-62 NSCLC,> 100 µM
same,TGI,HOP-62 NSCLC,> 100 µM
same,GI50,HOP-92 NSCLC,33.9 µM
same,TGI,HOP-92 NSCLC,> 100 µM
same,GI50,HS 578T breast,24.7 µM
same,TGI,HS 578T breast,> 100 µM
same,GI50,HT29 colon,62.5 µM
same,TGI,HT29 colon,> 100 µM
same,GI50,IGROV1 ovarian,> 100 µM
same,TGI,IGROV1 ovarian,> 100 µM
same,GI50,K-562 leukemia,71.6 µM
same,TGI,K-562 leukemia,> 100 µM
same,GI50,KM12 colon,> 100 µM
same,TGI,KM12 colon,> 100 µM
same,GI50,LOX IMVI melanoma,> 100 µM
same,TGI,LOX IMVI melanoma,> 100 µM
same,GI50,M14 melanoma,> 100 µM
same,TGI,M14 melanoma,> 100 µM
same,GI50,MALME-3M melanoma,> 100 µM
same,TGI,MALME-3M melanoma,> 100 µM
same,GI50,MCF7 breast,40.9 µM
same,TGI,MCF7 breast,> 100 µM
same,GI50,MDA-MB-231 breast,> 93.3 µM
same,TGI,MDA-MB-231 breast,> 100 µM
same,GI50,MDA-MB-435 melanoma,> 100 µM
same,TGI,MDA-MB-435 melanoma,> 100 µM
same,GI50,MOLT-4 leukemia,19.8 µM
same,TGI,MOLT-4 leukemia,> 100 µM
same,GI50,NCI-H226 lung,> 52.7 µM
same,TGI,NCI-H226 lung,> 100 µM
same,GI50,NCI-H23 lung,> 100 µM
same,TGI,NCI-H23 lung,> 100 µM
same,GI50,NCI-H322M lung,> 100 µM
same,TGI,NCI-H322M lung,> 100 µM
same,GI50,NCI-H460 NSCLC,84.4 µM
same,TGI,NCI-H460 NSCLC,> 100 µM
same,GI50,NCI-H522 lung,79.9 µM
same,TGI,NCI-H522 lung,> 100 µM
same,GI50,NCI/ADR-RES ovarian,> 100 µM
same,TGI,NCI/ADR-RES ovarian,> 100 µM
same,GI50,OVCAR-3 ovarian,55.9 µM
same,TGI,OVCAR-3 ovarian,> 100 µM
same,GI50,OVCAR-4 ovarian,43.4 µM
same,TGI,OVCAR-4 ovarian,> 100 µM
same,GI50,OVCAR-5 ovarian,> 100 µM
same,TGI,OVCAR-5 ovarian,> 100 µM
same,GI50,OVCAR-8 ovarian,> 100 µM
same,TGI,OVCAR-8 ovarian,> 100 µM
same,GI50,PC-3 prostate,> 94.6 µM
same,TGI,PC-3 prostate,> 100 µM
same,GI50,RPMI-8226 leukemia,48.3 µM
same,TGI,RPMI-8226 leukemia,> 100 µM
same,GI50,RXF 393 renal,23.9 µM
same,TGI,RXF 393 renal,> 84.7 µM
same,GI50,SF-268 CNS,> 43.9 µM
same,TGI,SF-268 CNS,> 90.2 µM
same,GI50,SF-295 CNS,99.5 µM
same,TGI,SF-295 CNS,> 100 µM
same,GI50,SF-539 CNS,> 100 µM
same,TGI,SF-539 CNS,> 100 µM
same,GI50,SK-MEL-2 melanoma,> 100 µM
same,TGI,SK-MEL-2 melanoma,> 100 µM
same,GI50,SK-MEL-28 melanoma,> 83.8 µM
same,TGI,SK-MEL-28 melanoma,> 100 µM
same,GI50,SK-MEL-5 melanoma,> 59.4 µM
same,TGI,SK-MEL-5 melanoma,> 100 µM
same,GI50,SK-OV-3 ovarian,> 100 µM
same,TGI,SK-OV-3 ovarian,> 100 µM
same,GI50,SN12C renal,> 100 µM
same,TGI,SN12C renal,> 100 µM
same,GI50,SNB-19 CNS,> 100 µM
same,TGI,SNB-19 CNS,> 100 µM
same,GI50,SNB-75 CNS,17.3 µM
same,TGI,SNB-75 CNS,96.8 µM
same,GI50,SR leukemia,13.6 µM
same,TGI,SR leukemia,33.6 µM
same,GI50,SW-620 colon,> 100 µM
same,TGI,SW-620 colon,> 100 µM
same,GI50,T-47D breast,14.6 µM
same,TGI,T-47D breast,65 µM
same,GI50,TK-10 renal,> 100 µM
same,TGI,TK-10 renal,> 100 µM
same,GI50,U251 glioblastoma,98.8 µM
same,TGI,U251 glioblastoma,> 100 µM
same,GI50,UACC-257 melanoma,> 63.2 µM
same,TGI,UACC-257 melanoma,> 100 µM
same,GI50,UACC-62 melanoma,> 100 µM
same,TGI,UACC-62 melanoma,> 100 µM
same,GI50,UO-31 renal,60.1 µM
same,TGI,UO-31 renal,> 100 µM
